Experiment [1] addresses T1, MDA-9 PDZ12 tandem domain (PDZ1) (Homo sapiens, UniProt O00560).
T1 construct: the MDA-9/Syntenin construct used for the screen contains both PDZ domains; made in house
T1 sequence (O00560 110-274): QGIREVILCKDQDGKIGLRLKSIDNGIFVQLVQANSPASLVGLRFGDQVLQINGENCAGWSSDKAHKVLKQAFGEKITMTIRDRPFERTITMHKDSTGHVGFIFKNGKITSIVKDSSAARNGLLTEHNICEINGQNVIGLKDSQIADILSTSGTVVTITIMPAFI
Briefly: NMR [15N,1H] HSQC chemical shift change and titration binding. Here is the method: FIGS. 4A-4E. FIG. 4A. […] FIG. 4B. Superposition of 2D [^15N, ^1H]-HSQC spectra of 50 μM MDA-9 PDZ12 tandem domain in the absence and presence of 350 μM 113B7. FIG. 4C. Binding curve and representative spectra for the titration of 113B7 against MDA-9 PDZ12 tandem domain. Top: Zoom of box region in FIG. 4B after titrating 113B7 into Mda9 PDZ, tandem domain. […] Bottom: Titration curve of 113B7 for residue A147. […] FIG. 4D. […] FIG. 4E. Docked structure of 113B7 in complex with MDA-9 PDZ tandem domain (PDB: 1W9E). The pose was obtained with GOLD. Two PDZ domains of MDA-9 are labeled.
NMR based screening of an house assembled fragment library of about 5,000 compounds using [^15N,^1H] […] The proposed docked structure of PDZ1i in the PDZ1 domain and interdomain of MDA-9/Syntenin is shown in FIGS. 4A-4E and FIG. 5, while the chemical structure of PDZ1i is also shown in FIGS. 4A-4E and FIG. 5.
In all binding assays, the MDA-9/Syntenin construct used for the screen contains both PDZ domains. Constructs uniformly labeled with ^15N and ^13C or ^13C-Met selectively labeled are used for binding, mapping and structural studies. These same proteins are used for ITC binding studies.

The subject of experiment [2] is PDZ domain from X11/mint scaffold protein. Briefly: NMR [15N,1H] HSQC counter screen. Type of experiment: binding. To be noted: 20 μM protein, 100 μM 113B7. Here is the method: FIGS. 4A-4E. FIG. 4A. Chemical structures of the two initial fragment hits (top) and the structure of the resulting molecule 113B7 (PDZ1i). FIG. 4B. Superposition of 2D [^15N, ^1H]-HSQC spectra of 50 μM MDA-9 PDZ12 tandem domain in the absence and presence of 350 μM 113B7. FIG. 4C. Binding curve and representative spectra for the titration of 113B7 against MDA-9 PDZ12 tandem domain. Top: Zoom of box region in FIG. 4B after titrating 113B7 into Mda9 PDZ, tandem domain. The cross peak corresponding to the backbone amide of residue A147 experiences a gradual shift upon the addition of 113B7. Bottom: Titration curve of 113B7 for residue A147. The dissociation constant for the binding of 113B7 to MDA-9 was calculated to be 21.37±8.62 μM. FIG. 4D. Superposition of 2D [^15N, ^1H]-HSQC spectra of 50 μM PDZ domain from X11/mint scaffold protein ([…]; 33% identity with PDZ1) are shown in absence and in presence of […] 113B7. […] FIG. 4E. Docked structure of 113B7 in complex with MDA-9 PDZ tandem domain (PDB: 1W9E). The pose was obtained with GOLD. Two PDZ domains of MDA-9 are labeled.
FIG. 52. Left panel, Docked structure of compound 113B7 on the surface of MDA-9/Syntenin. The docked structure is supported by NMR chemical shift mapping data. […]
For orientation: Counterscreens check selectivity or assay interference.

“Also recorded” adds a separate entry of the source. Where two headings read alike, the source gives them in different places.

A word on the Kd: it is the constant that tells how readily two partners part at equilibrium. For the compound `Cc1cc(NC(=O)c2nc3[nH]c4c(c(=O)n3n2)CCC4)c(C)cc1NC(=O)CCc1nnc(-c2ccccc2)o1` [113B7, N-(2,5-dimethyl-4-(3-(5-phenyl-1,3,4-oxadiazol-2-yl)propanamido)phenyl)-8-oxo-5,6,7,8-tetrahydro-4H-cyclopenta[d][1,2,4]triazolo[1,5-a]pyrimidine-2-carboxamide], the “dissociation constant / affinity in words” value in experiment [1] (NMR titration (and ITC)) is “low micromolar range; also recorded: micromolar affinity”. Besides, the Kd was 21.4 ± 8.62 µM in experiment [1] (NMR titration following backbone amide of residue 147, read-out: Kd values); less than 10 µM in experiment [1] (NMR titration, read-out: upper limit for the dissociation constant of the complex, Kd); roughly 10 µM in experiment [1] (estimated by NMR titration in 2D HSQC experiments (Table 4), read-out: Kd). Also, in experiment [1] (chemical shift change (DPPM) of backbone amide of residue 147, 50 μM PDZ12, compound at 1:1 molar ratio), the Binding affinity ranking is on record as 4 (4 for DPPM 0.06-0.08). For the same compound, the “binding to X11/mint PDZ domain” value in experiment [2] is on record as “No appreciable binding is detected”.
